Test results reported in patent publication US7811760B2, “Vector and method for detecting the change in transcription amount” (priority 2006, dated 2010).

Target: T1, aryl hydrocarbon receptor (Rattus norvegicus, UniProt P41738, Q794H)
T1 construct: The SD-line rat AhR gene-coding region was amplified from the reverse-transcribed sample by means of PCR; V5-His (C-terminal tag of vector pcDNA4/V5-His B); expressed in transfected cells; host or cells: mouse neuroblastoma Neuro2a, transient transfection with LIPOFECTAMINE 2000
T1 sequence (P41738 10-853 Q794H): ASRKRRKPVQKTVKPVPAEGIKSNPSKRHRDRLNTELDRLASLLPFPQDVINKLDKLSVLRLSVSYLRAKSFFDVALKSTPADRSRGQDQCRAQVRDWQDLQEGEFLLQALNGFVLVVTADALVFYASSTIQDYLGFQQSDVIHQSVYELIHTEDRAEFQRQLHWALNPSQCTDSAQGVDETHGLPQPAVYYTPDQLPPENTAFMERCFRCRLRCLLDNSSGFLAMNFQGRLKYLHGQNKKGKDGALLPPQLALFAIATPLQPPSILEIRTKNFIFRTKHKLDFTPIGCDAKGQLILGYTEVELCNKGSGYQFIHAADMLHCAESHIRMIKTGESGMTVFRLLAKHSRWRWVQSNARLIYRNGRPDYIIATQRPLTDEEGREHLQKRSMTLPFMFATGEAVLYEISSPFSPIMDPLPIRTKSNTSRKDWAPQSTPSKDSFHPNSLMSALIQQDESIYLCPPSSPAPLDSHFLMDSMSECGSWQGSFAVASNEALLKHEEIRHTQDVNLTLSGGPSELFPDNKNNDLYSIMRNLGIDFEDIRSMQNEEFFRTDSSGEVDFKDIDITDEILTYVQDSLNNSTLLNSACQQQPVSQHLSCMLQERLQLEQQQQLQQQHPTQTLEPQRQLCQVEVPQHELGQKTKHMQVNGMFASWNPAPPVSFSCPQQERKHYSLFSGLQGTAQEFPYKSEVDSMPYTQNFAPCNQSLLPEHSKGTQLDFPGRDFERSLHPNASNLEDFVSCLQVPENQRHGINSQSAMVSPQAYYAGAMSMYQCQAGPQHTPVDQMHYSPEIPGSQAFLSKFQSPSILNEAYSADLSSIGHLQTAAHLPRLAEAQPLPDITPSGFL
Assay: Reporter gene assay in Neuro2a with pSV40E100/Luc and pTHE100/Luc (SEQ ID No: 3)
Assay type: cell-based, SD-line rat
Settings: 10 nM TCDD; pTHE100/Luc compared with pSV40E100/Luc
Experimental: The TH transcriptional regulatory region of SEQ ID No: 3 (−300 to −200 bp) was used in Example 6. The TH transcriptional regulatory region ranging from −300 to −200 position was prepared by PCR using the 500-bp size of TH transcriptional regulatory region as a template. The following primers were used.
Recognition sequences for restriction enzymes KpnI (for forward primer) and NheI (for reverse primer) were added to the terminal of the respective primers, for the purpose of facilitating incorporation of the PCR amplified fragment into the vector. The region of SEQ ID No: 3 was amplified by using Pyrobest DNA polymerase. The amplified DNA fragment was digested with restriction enzymes KpnI and NheI, and subjected to electrophoresis on agarose. The corresponding band was purified with a QIAQUICK Gel Extraction Kit, and incorporated into PGV-P2 vector previously digested with KpnI and NheI, to obtain a recombinant vector pSV40E100/Luc. The vector PGV-P2 used contains an SV40 early promoter as its promoter region.
In addition, the region of SEQ ID No: 5 (mouse TH gene core promoter region) was amplified by PCR using a forward primer: 5′-[…]-3′ (SEQ ID No: 27) and a reverse primer: 5′-[…]-3′ (SEQ ID No: 28), and using a region of approximately 500 by upstream of the TH gene as the template. […]

Clc1cc2c(cc1Cl)Oc1cc(Cl)c(Cl)cc1O2 [TCDD, 2,3,7,8-tetrachlorodibenzo-p-dioxine]
activity in response to test substance, TH gene core promoter versus SV40 early promoter: higher activity in response to a test substance
